Literature values, collected in patent US20230201147A1, “COCRYSTAL ANTIOXIDANTS OF PROTOCATECHUIC ACID WITH L-THEANINE FOR THE TREATMENT OF OXIDATIVE STRESS AND INFLAMMATORY CONDITIONS” (priority 2020, published 2023).

Test system: thrombin-stimulated thromboxane formation
Settings: whole blood

CCNC(=O)CC[C@H](N)C(=O)O [L-theanine, N-ethyl-L-glutamine]
inhibition of thrombin-stimulated thromboxane formation: potent inhibitor
